Holding throughout (assay): inhibition of tumour cell growth, NCI panel, 48 h
The test system of experiment [1] is NCI/ADR-RES.
Experiment [2] deals with M14.
Experiment [3] concerns HOP-92.
Experiment [4] has as its system RPMI-8226.
Experiment [5] has as its system BT-549.
Experiment [6] has as its system OVCAR-8.
Experiment [7] has as its system OVCAR-5.
Experiment [8] has as its system RXF 393.
In experiment [9] the test system is HCT-15.
The test system of experiment [10] is SK-MEL-5.
For experiment [11], the system named is SN12C.
Experiment [12] relates to MDA-MB-231.
Experiment [13] concerns TK-10.
For experiment [14], the system named is MOLT-4.
Experiment [15] has as its system SNB-19.
For experiment [16], the system named is NCI-H460.
The test system of experiment [17] is Malme-3M.
Experiment [18] has as its system CCRF-CEM.
Experiment [19] has as its system COLO 205.
For experiment [20], the system named is HL-60.

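Interpolation was linear, between the two tested concentrations surrounding the appropriate level; five concentrations were tested over 48 hours in 96-well plates. The concentration for 50% growth inhibition is given as GI50.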 Calls of active or inactive are those of the source. Rule as the data show it: active = GI50 up to about 1.1 µM and inactive = higher.

As for `C[N+](CCCl)(CCCl)Cc1cccc2cccc([N+](=O)[O-])c12`, the GI50 in experiment [1] is > 100 µM (inactive); in experiment [2], > 100 µM (inactive); in experiment [3], > 100 µM (inactive); in [4], 40.5 µM (inactive); in experiment [5] it was > 100 µM (inactive); in experiment [6], 43.5 µM (inactive). Also, the GI50 in experiment [7] was > 100 µM (inactive); in experiment [8], > 100 µM (inactive); in [9], greater than 100 µM; in experiment [10] it was 53.3 µM (inactive); in experiment [11], 45.5 µM (inactive); in experiment [12], > 100 µM (inactive). The GI50 in experiment [13] is > 100 µM (inactive); in experiment [14] it was 60.5 µM (inactive); in experiment [15], 75.2 µM (inactive); in experiment [16], 53.8 µM (inactive); in experiment [17], 81.1 µM (inactive); in [18], 73.6 µM (inactive). For the same molecule, the GI50 in experiment [19] is 25.8 µM (inactive); in experiment [20], 45.1 µM (inactive).
For `COc1ccc(OC)c([N+](=O)[O-])c1-c1nc2sccn2c1/C=N/N=C(N)N`, the GI50 in [1] is > 100 µM (inactive); in experiment [2] it was > 100 µM (inactive); in [3], 23 µM (inactive); in [4], 33.5 µM (inactive); in experiment [5], 53.2 µM (inactive); in experiment [6], > 100 µM (inactive). The GI50 is > 100 µM (inactive) in [7]; > 100 µM (inactive) in [8]; greater than 100 µM in experiment [9]; 28.8 µM (inactive) in [10]; > 100 µM (inactive) in experiment [11]; 48.6 µM (inactive) in [12]. For the same molecule, the GI50 in [13] was 51.4 µM (inactive); in experiment [14] it was 26.9 µM (inactive); in experiment [15] it was > 100 µM (inactive); in [16], 76.6 µM (inactive); in experiment [17] it was 35.2 µM (inactive); in experiment [18] it was 34.2 µM (inactive). The GI50 in [19] is 29 µM (inactive); in [20], 79.6 µM (inactive).
`C=C1C(=O)OC2CC1C(OC(=O)/C=C/c1ccccc1)C/C(C)=C/CC/C(C)=C/CCC2(C)O` (stereo not given): the GI50 in experiment [1] was 1.74 µM (inactive); in [2] it was 1.64 µM (inactive); in experiment [3] it was 1.52 µM (inactive); in experiment [4], 0.433 µM (active); in experiment [5], 1.05 µM (active); in [6], 1.75 µM (inactive). The GI50 is 1.75 µM (inactive) in experiment [7]; 1.34 µM (inactive) in [8]; 0.889 µM in [9]; 1.85 µM (inactive) in experiment [10]; 1.57 µM (inactive) in [11]; 1.66 µM (inactive) in [12]. In addition, the GI50 in [13] was 1.65 µM (inactive); in [14] it was 0.409 µM (active); in experiment [15], 1.89 µM (inactive); in [16], 1.36 µM (inactive); in experiment [17], 2 µM (inactive); in experiment [18], 0.372 µM (active). Besides, the GI50 was 3.41 µM (inactive) in experiment [19] and 0.308 µM (active) in [20].
Consider `O=C(OCCNC(=O)N1CC1)OCCNC(=O)N1CC1`, for which the GI50 in [1], in experiment [2], in [3], in experiment [4], in [5] and in [6] was > 10 µM (inactive) in each case. Besides, the GI50 in [7] is > 10 µM (inactive); in experiment [8] it was > 10 µM (inactive); in experiment [9] it was greater than 10 µM; in experiment [10], > 10 µM (inactive); in experiment [11], > 10 µM (inactive); in [12] it was > 10 µM (inactive). Further, the GI50 in experiment [13], in [14], in experiment [15], in experiment [16], in experiment [17] and in experiment [18] was > 10 µM (inactive) each time. In addition, the GI50 in [19] and in experiment [20] was > 10 µM (inactive) each time.
Regarding `Clc1cc(OC2C3CC4CC(C3)CC2C4)nc(Cl)n1` (stereo not given), the GI50 in [1] is 31.7 µM (inactive); in experiment [2] it was 16.2 µM (inactive); in experiment [3] it was 1.64 µM (inactive); in experiment [4], 21 µM (inactive); in experiment [5], 19.8 µM (inactive); in experiment [6], 26.1 µM (inactive). Further, the GI50 in experiment [7] is 21.3 µM (inactive); in experiment [8], 12.8 µM (inactive); in [9], 14 µM; in [10], 17.9 µM (inactive); in experiment [11], 16.1 µM (inactive); in experiment [12], 13.7 µM (inactive). Also, the GI50 is 30.7 µM (inactive) in experiment [13]; 16.9 µM (inactive) in [14]; 36.4 µM (inactive) in experiment [15]; 17.7 µM (inactive) in experiment [16]; 14.9 µM (inactive) in experiment [17]; 16.7 µM (inactive) in experiment [18]. The GI50 was 18.6 µM (inactive) in experiment [19] and 3.08 µM (inactive) in experiment [20].
For the molecule `COC(=O)C1C(=O)C(C(=O)OC)C2CCC1N2C` (stereo not given), the GI50 was 48.6 µM (inactive) in [1]; 29.8 µM (inactive) in [2]; 16 µM (inactive) in experiment [3]; 35 µM (inactive) in experiment [4]; 0.628 µM (active) in experiment [5]; 27.9 µM (inactive) in [6]. Moreover, the GI50 was > 100 µM (inactive) in experiment [7]; 24.9 µM (inactive) in [8]; 1.84 µM in [9]; > 100 µM (inactive) in [10]; 32.1 µM (inactive) in [11]; 39 µM (inactive) in experiment [12]. Further, the GI50 in experiment [13] is 62.4 µM (inactive); in [14] it was 9.08 µM (inactive); in [15] it was > 100 µM (inactive); in experiment [16] it was 48.3 µM (inactive); in [17], 20.2 µM (inactive); in experiment [18], 15.8 µM (inactive). The GI50 is > 100 µM (inactive) in [19] and 19.9 µM (inactive) in experiment [20].
On to `O=C(NN=C1NCCCN1)c1ccco1`, for which the GI50 in experiment [1], in experiment [2], in [3], in experiment [4], in experiment [5] and in experiment [6] was > 100 µM (inactive) each time. The GI50 in experiment [7] was > 100 µM (inactive); in [8], > 100 µM (inactive); in experiment [9], greater than 100 µM; in experiment [10] it was > 100 µM (inactive); in [11], > 100 µM (inactive); in [12] it was > 100 µM (inactive). In addition, the GI50 in [13], in experiment [14], in experiment [15], in [16], in experiment [17] and in experiment [18] was > 100 µM (inactive) in each case. For the same molecule, the GI50 in [19] and in [20] was > 100 µM (inactive) each time.
`Cc1ccc(S(=O)(=O)N2CCN(S(=O)(=O)c3ccc(C)cc3)CCN(S(=O)(=O)c3ccc(C)cc3)Cc3cc(Br)c(Br)cc3CN(S(=O)(=O)c3ccc(C)cc3)CC2)cc1`: the GI50 was > 100 µM (inactive) in experiment [1]; 19.1 µM (inactive) in experiment [2]; 23.6 µM (inactive) in experiment [3]; > 100 µM (inactive) in experiment [4]; > 100 µM (inactive) in [5]; > 100 µM (inactive) in experiment [6]. For the same molecule, the GI50 in experiment [7] was 92.3 µM (inactive); in [8], > 100 µM (inactive); in experiment [9], greater than 100 µM; in [10], > 100 µM (inactive); in experiment [11], > 100 µM (inactive); in experiment [12] it was 23.3 µM (inactive). The GI50 is 69.5 µM (inactive) in experiment [13]; > 100 µM (inactive) in experiment [14]; 43.5 µM (inactive) in [15]; > 100 µM (inactive) in experiment [16]; 44.9 µM (inactive) in experiment [17]; > 100 µM (inactive) in [18]. Also, the GI50 in experiment [19] and in experiment [20] was > 100 µM (inactive) each time.
`CC1(C)OC[C@@H](C[C@H](O)COCc2ccccc2)O1`: the GI50 in experiment [1], in [2], in [3], in experiment [4], in experiment [5] and in experiment [6] was > 100 µM (inactive) in each case. In addition, the GI50 in experiment [7] is > 100 µM (inactive); in [8], > 100 µM (inactive); in experiment [9], greater than 100 µM; in experiment [10] it was > 100 µM (inactive); in experiment [11], > 100 µM (inactive); in experiment [12], > 100 µM (inactive). Further, the GI50 in experiment [13], in [14], in experiment [15], in experiment [16], in experiment [17] and in [18] was > 100 µM (inactive) in each case. Further, the GI50 in [19] and in experiment [20] was > 100 µM (inactive) in each case.
For `CCN(CC)CCNC(=O)c1cn2c(ccc3sc4ccccc4c(=O)c32)n1`, the GI50 is 11.2 µM (inactive) in [1]; 15.1 µM (inactive) in [2]; 8.91 µM (inactive) in [3]; 5.62 µM (inactive) in experiment [4]; 13.8 µM (inactive) in [5]; 12.3 µM (inactive) in experiment [6]. Besides, the GI50 in [7] is 8.57 µM (inactive); in experiment [8] it was 8.22 µM (inactive); in [9], 5.21 µM; in experiment [10], 7.26 µM (inactive); in [11], 9.33 µM (inactive); in [12] it was 8.95 µM (inactive). The GI50 in experiment [13] was 14.4 µM (inactive); in [14], 0.502 µM (active); in [15] it was 11.5 µM (inactive); in [16], 1.03 µM (active); in experiment [17] it was 11.6 µM (inactive); in experiment [18], 2.74 µM (inactive). Besides, the GI50 in experiment [19] was 6.25 µM (inactive); in experiment [20], 5.26 µM (inactive).

Values taken from ChEMBL document CHEMBL1201862, “PubChem BioAssay data set” (2004).
